How the values were obtained:
γ-H2AX = assay: Western blot of γ-H2AX in PC-9 cells; format: cell-based, Human; details: PC-9, 0, 2, 4, 8 µM, 48 h
Source text: (§1) To determine the role of compounds 9e and 9p on regulating the development of cell proliferation, expressions of key proteins which were involved in cell growth progresses such as autophagy, apoptosis, cell cycle and DNA damage were examined. Ubiquitin like molecule light chain 3 (LC3) is a key marker of autophagy. […] Caspase3, which is one of the key proteins in regulating apoptosis, however, was not changed in tumor cells after treated with 9e or 9p. Cell cycle regulation proteins such as CyclinD, CyclinE or β-catenin were also not affected when PC-9 was treated with 9e or 9p. Further, H2AX variant histone (γ-H2AX), which was responsible for DNA damage, was also not affected when PC-9 were treated with 9e or 9p.
(§2) Protein expression levels were measured by western blot. PC-9 cells were cultured in 12-well plates and different concentrations (0, 2, 4, 8µM) of 9e and 9p were added for 48 h. Proteins were extracted from whole cells using radioimmunoprecipitation assay (RIPA). Buffer containing protease/phosphatase inhibitor cocktail (CST). Sodium dodecyl sulfate (10-15%) polyacrylamide gel electrophoresis and nitrocellulose membranes (Millipore) were used to separate and collect proteins. Antibodies used include, LC3 (3868s, CST), Caspase3 (9662, CST), cyclin D (2922s, CST), cyclin E (20808s, CST), γ-H2AX (9718s, CST), and β-actin (4967s, CST).

CyclinD = assay: Western blot of CyclinD in PC-9 cells; format: cell-based, Human; details: PC-9, 0, 2, 4, 8 µM, 48 h
Source text: as §1, §2

PC-9 [1] = assay: Cell cycle assay (PI staining, flow cytometry), PC-9; format: cell-based, Human; details: 48 h
Experimental: (§3) Cancer cell lines PC-9 and H460 were then treated for 48 h with 9e or 9p at different concentrations to investigate the effects of these compounds on regulating the cell cycle. Cell cycle distributions were analyzed using the flow cytometry technique.
(§4) PC-9 and H460 cells were cultured in 6-well plates with a density of 3 × 10^5 cells/well. Cells were treated with different concentrations (0, 4, and 8 µM for PC-9 cells and H460 cells) of 9e or 9p for 48 h respectively. Then the cell cycle was determined by PI staining with the flow cytometer.

A549 = assay: CCK8 cell viability assay, A549; format: cell-based, Human; details: for Cell viability (100%): A549, 20 µM, 48 h, CCK8, control = 100%; for IC50: A549, 48 h, CCK8, mean ± SE
Experimental: (§5) At first, CCK8 assay was carried out to evaluate the anti-proliferative activity of dolutegravir-1,2,3-triazole derivatives against different cancer cell lines. The results of cell viability of three lung cancer cell lines A549, PC-9 and H460 in the presence of compounds 9 and 10 are summarized in Table 2. Cells were treated with different compounds at the concentration of 20 µM for 48 h. […] Human lung cancer cell lines A549, PC-9 and H460 were all obtained from ATCC. Cells were cultured in DMEM or RPMI 1640 medium containing 10% FBS and 1% penicillin/streptomycin at 37 °C with a 5% CO2-humidified atmosphere. CCK8 assay was used to measure cell viability. Cells with a density of 1 × 10^4 cells/well were seeded on the 96-well plates. After adhesion, cells were treated with different diluted compounds or vehicle control DMSO and continue cultured for 48 h. Then, CCK8 reagent was added for one hour incubation at 37 °C with 5% of CO2. Absorbance was measured using a microplate spectrophotometer (Thermo) at 450 nm. The ratio of cell viability of control was taken as 100%. […] Then IC50 of the compounds were investigated using the prism statistical software.

CyclinE = assay: Western blot of CyclinE in PC-9 cells; format: cell-based, Human; details: PC-9, 0, 2, 4, 8 µM, 48 h
Source text: as §1, §2

[2] = test system: HRM (Human Renal Mesangial) cell line; assay: CCK8 cell viability assay, HRM normal cells (toxicity control); format: cell-based; details: for IC50: HRM normal human cells, 48 h, CCK8, mean ± SE
Experimental: Based on these preliminary results, compounds 9c, 9e, 9f, 9i, 9k, 9 L, 9p, 9q, 9t, 9u, 9v, 9w, 10c, 10e which were effective to most of the cell lines were chosen for the measurement of the half-maximal inhibitory concentration (IC50). […] HRM (Human Renal Mesangial) cell line was used as a control to study the toxicity of these compounds against normal human cells.
CCK8 assay was used to measure cell viability. Cells with a density of 1 × 10^4 cells/well were seeded on the 96-well plates. After adhesion, cells were treated with different diluted compounds or vehicle control DMSO and continue cultured for 48 h. Then, CCK8 reagent was added for one hour incubation at 37 °C with 5% of CO2. Absorbance was measured using a microplate spectrophotometer (Thermo) at 450 nm. The ratio of cell viability of control was taken as 100%. […] Then IC50 of the compounds were investigated using the prism statistical software.

H460 [3] = assay: Cell cycle assay (PI staining, flow cytometry), H460; format: cell-based, Human; details: H460, 48 h, 4 and 8 µM
Experimental: as §3, §4

H460 [4] = assay: CCK8 cell viability assay, H460; format: cell-based, Human; details: for Cell viability (100%): H460, 20 µM, 48 h, CCK8, control = 100%; for IC50: H460, 48 h, CCK8, mean ± SE
Experimental: as §5

β-catenin = assay: Western blot of β-catenin in PC-9 cells; format: cell-based, Human; details: PC-9, 0, 2, 4, 8 µM, 48 h
Source text: as §1, §2

PC-9 [5] = assay: CCK8 cell viability assay, PC-9; format: cell-based, Human; details: for Cell viability (100%): PC9, 20 µM, 48 h, CCK8, control = 100%; for IC50: PC9, 48 h, CCK8, mean ± SE
Experimental: as §5

H460 [6] = assay: Cellular ROS measurement (DCFH-DA), H460; format: cell-based, Human; details: H460, 5 µM and 10 µM, 24 h, DCFH-DA staining
Experimental: (§6) Reactive oxygen species could induce cell death and suppress cell growth and proliferation. To assess the role of compounds 9e and 9p in ROS generation, different cancer cell lines were treated with 9e or 9p for 24 h. DCFDA was used to stain cells and ROS was detected with fluorescent microscope.
(§7) PC-9 and H460 cells were cultured in 96-well plates in a density of 5 × 10^3 cells/well. Different concentrations (0, 5 and 10 µM) of 9e or 9p were added to cells respectively for 24 h. After treatment, cells were stimulated with 10 µM DCFH-DA for 30 min at 37 °C, then observed and photographed using a fluorescent microscope.

PC-9 [7] = assay: Plate clone formation assay, PC-9; format: cell-based, Human; details: PC9, 0, 2, 4, 8, 16 and 32 µM, 48 h
Experimental: The plate clone formation experiments were also carried outto further confirm the effects of dolutegravir derivatives on cell proliferation. Compounds 9e and 9p with different concentrations (0, 2, 4, 8, 16 and 32 µM) were added to the cells.
PC-9 and H460 cells were seeded into 6-well plates at a density of 100–500 cells/well. After 10 days culture, cells were added with 9e or 9p at different concentrations (0, 2 µM, 4 µM, 8 µM, 16 µM, 32 µM) for 48 h. Then cells were fixed by 4% paraformaldehyde and stained by Giemsa dye. An optical microscope was used to photograph cells and count the clone numbers.

PC-9 [8] = assay: Cellular ROS measurement (DCFH-DA), PC-9; format: cell-based, Human; details: PC-9, 5 µM and 10 µM, 24 h, DCFH-DA staining
Experimental: as §6, §7

In the case of `COc1c2n(cc(C(=O)Nc3cccc(-c4cn(-c5cccc([N+](=O)[O-])c5C)nn4)c3)c1=O)C[C@@H]1OCC[C@@H](C)N1C2=O` [Compound 9e], the γ-H2AX expression (γ-H2AX) is reported as “not affected”, the CyclinD expression (CyclinD) is reported as “not affected” and the “effect on cell cycle” value (PC-9 [1]; PC-9, 4 µM) is reported as “moderate effects on cell cycle”. The “effect on cell cycle” value (PC-9 [1]; PC-9, 8 µM) was “decreased G0/G1 phase and increased S and G2/M phase”, the “Cell viability (100%)” value (A549) was 9.14% and the IC50 (A549) was 8.72 ± 0.11 µM. For the same molecule, the CyclinE expression (CyclinE) was “not affected”, the “toxicity against normal cells” value ([2]; HRM cells) was “low toxicity against normal cells” and the IC50 [2] was over 50 µM. The “effect on cell cycle” value (H460 [3]) was “increased G2/M phase and had little influences on G0/G1 or S phase”, the “Cell viability (100%)” value (H460 [4]) was 30.94% and the IC50 (H460 [4]) was 11.8 ± 2.31 µM. The β-catenin expression (β-catenin) was “not affected”, the “Cell viability (100%)” value (PC-9 [5]) was 24.05% and the IC50 (PC-9 [5]) was 3.83 ± 0.73 µM. The ROS generation (H460 [6]) was “significantly increased”, the “plate clone formation (cell proliferation)” value (PC-9 [7]) was “anti-proliferative activity against cell lines PC9 and H460 in a dose-dependent manner” and the ROS generation (PC-9 [8]) was “significantly increased”.

In the case of `COc1c2n(cc(C(=O)Nc3cccc(-c4cn(-c5cccc(C(F)(F)F)c5)nn4)c3)c1=O)C[C@@H]1OCC[C@@H](C)N1C2=O` [Compound 9p], the γ-H2AX expression (γ-H2AX) is reported as “not affected”, the CyclinD expression (CyclinD) is reported as “not affected” and the “effect on cell cycle” value (PC-9 [1]; PC-9, 4 µM and 8 µM) is reported as “induced an S and G2/M cell cycle arrest”. For the same molecule, the “Cell viability (100%)” value (A549) was 10.85%, the IC50 (A549) was 13 ± 0.32 µM and the CyclinE expression (CyclinE) was “not affected”. For the same molecule, the IC50 [2] was 35.6 ± 10.8 µM, the “effect on cell cycle” value (H460 [3]) was “significantly decrease the S phase” and the “Cell viability (100%)” value (H460 [4]) was 5.63%. The IC50 (H460 [4]) was 10.7 ± 0.48 µM, the β-catenin expression (β-catenin) was “not affected” and the “Cell viability (100%)” value (PC-9 [5]) was 2.11%. For the same molecule, the IC50 (PC-9 [5]) was 3.17 ± 0.18 µM, the ROS generation (H460 [6]) was “significantly increased” and the “plate clone formation (cell proliferation)” value (PC-9 [7]) was “anti-proliferative activity against cell lines PC9 and H460 in a dose-dependent manner”. The ROS generation (PC-9 [8]) was “significantly increased”.

— PMC11077815, “Synthesis and antitumor activity of dolutegravir derivatives bearing 1,2,3-triazole moieties” (BMC Chemistry, 2024)
